We go through seven compounds from ChEMBL document CHEMBL3632539, “Identification of Bidentate Salicylic Acid Inhibitors of PTP1B” (ACS Med Chem Lett, 2015).

Active and inactive are the calls of the source. The rule behind the calls is not given here.

The species entered for data set [1] is Homo sapiens. The experiment in a line: Inhibition of GST-tagged PRL2 A/S mutant (unknown origin) by plate reader analysis using DiFMUP as substrate.
In data set [2] the target is Receptor-type tyrosine-protein phosphatase F (Homo sapiens) (UniProt P10586). The experiment in a line: Inhibition of GST-tagged LAR (unknown origin) by plate reader analysis using DiFMUP as substrate.
Sequence of Receptor-type tyrosine-protein phosphatase F (Homo sapiens) (P10586 whole entry): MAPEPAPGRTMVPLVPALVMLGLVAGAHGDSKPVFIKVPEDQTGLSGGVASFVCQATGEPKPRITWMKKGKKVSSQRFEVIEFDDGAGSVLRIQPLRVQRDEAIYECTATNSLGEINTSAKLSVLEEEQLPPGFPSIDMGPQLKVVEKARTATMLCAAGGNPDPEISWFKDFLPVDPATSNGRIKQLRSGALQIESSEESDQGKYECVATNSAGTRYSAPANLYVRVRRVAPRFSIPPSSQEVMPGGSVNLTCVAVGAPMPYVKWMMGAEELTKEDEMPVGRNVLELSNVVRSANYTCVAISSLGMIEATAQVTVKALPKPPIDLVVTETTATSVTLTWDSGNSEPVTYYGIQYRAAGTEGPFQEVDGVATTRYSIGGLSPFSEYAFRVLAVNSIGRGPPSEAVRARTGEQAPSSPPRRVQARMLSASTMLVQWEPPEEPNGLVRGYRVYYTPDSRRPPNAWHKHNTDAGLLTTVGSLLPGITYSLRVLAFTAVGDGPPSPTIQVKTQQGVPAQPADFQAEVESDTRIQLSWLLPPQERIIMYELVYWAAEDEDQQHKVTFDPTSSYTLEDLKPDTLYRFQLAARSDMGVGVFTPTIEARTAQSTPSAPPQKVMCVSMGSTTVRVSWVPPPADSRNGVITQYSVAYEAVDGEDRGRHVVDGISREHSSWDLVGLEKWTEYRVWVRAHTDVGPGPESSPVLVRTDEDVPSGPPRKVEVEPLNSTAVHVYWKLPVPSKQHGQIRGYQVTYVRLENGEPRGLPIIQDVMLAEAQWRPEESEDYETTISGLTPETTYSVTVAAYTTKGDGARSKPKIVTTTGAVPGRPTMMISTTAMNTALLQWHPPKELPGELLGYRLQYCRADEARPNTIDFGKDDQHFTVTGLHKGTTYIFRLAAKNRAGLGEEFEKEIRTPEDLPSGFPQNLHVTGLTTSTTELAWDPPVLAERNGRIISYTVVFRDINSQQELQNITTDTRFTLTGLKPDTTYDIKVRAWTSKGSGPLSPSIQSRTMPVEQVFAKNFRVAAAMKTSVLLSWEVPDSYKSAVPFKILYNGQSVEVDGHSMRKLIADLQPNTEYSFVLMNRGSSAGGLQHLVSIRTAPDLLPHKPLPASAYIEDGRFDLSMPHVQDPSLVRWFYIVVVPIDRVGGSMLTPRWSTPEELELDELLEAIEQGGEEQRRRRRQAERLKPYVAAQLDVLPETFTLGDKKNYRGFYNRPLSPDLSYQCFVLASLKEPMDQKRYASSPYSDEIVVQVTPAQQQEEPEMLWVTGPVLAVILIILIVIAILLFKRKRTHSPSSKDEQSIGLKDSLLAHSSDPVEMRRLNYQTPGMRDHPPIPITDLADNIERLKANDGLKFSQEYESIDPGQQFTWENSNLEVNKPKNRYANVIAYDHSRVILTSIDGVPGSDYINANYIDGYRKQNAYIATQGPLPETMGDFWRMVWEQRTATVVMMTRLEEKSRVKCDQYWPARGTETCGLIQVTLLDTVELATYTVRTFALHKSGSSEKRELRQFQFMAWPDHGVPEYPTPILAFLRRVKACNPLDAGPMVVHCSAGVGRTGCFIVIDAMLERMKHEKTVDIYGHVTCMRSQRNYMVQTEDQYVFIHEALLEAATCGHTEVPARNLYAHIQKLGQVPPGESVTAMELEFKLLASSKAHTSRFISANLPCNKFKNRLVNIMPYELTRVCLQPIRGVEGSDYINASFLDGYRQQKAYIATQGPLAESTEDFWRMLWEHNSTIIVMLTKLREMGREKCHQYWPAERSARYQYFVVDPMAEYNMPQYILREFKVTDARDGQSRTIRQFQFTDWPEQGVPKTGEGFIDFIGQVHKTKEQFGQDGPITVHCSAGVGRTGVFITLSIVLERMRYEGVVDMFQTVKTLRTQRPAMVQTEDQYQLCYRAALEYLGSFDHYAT
The target of data set [3] is T1, Papain (Carica papaya) (UniProt P00784).
T1 sequence (whole entry): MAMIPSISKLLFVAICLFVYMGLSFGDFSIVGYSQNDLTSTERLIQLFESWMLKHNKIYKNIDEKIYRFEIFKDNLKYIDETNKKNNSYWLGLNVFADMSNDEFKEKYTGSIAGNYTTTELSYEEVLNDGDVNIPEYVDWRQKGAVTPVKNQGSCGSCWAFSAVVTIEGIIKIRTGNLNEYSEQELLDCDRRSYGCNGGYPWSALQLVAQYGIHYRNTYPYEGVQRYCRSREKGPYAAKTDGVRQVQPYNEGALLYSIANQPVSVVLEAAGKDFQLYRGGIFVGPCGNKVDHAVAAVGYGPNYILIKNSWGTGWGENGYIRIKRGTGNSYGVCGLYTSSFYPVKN
The experiment in a line: Inhibition of papaya papain by plate reader analysis using Z-Phe-Arg-pNA substrate.

The target in data set [4] is T2, Dual specificity protein phosphatase 22 (Homo sapiens) (UniProt Q9NRW4).
T2 sequence (whole entry): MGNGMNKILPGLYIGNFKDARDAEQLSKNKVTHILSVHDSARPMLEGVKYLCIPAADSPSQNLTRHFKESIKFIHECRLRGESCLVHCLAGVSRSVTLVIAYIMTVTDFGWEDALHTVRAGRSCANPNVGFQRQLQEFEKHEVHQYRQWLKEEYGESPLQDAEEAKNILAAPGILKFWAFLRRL
The experiment in a line: Inhibition of GST-tagged MKPX (unknown origin) by plate reader analysis using DiFMUP as substrate.

In data set [5] the target is T3, Tyrosine-protein phosphatase non-receptor type 1 (Homo sapiens, UniProt P18031).
T3 sequence (P18031 whole entry): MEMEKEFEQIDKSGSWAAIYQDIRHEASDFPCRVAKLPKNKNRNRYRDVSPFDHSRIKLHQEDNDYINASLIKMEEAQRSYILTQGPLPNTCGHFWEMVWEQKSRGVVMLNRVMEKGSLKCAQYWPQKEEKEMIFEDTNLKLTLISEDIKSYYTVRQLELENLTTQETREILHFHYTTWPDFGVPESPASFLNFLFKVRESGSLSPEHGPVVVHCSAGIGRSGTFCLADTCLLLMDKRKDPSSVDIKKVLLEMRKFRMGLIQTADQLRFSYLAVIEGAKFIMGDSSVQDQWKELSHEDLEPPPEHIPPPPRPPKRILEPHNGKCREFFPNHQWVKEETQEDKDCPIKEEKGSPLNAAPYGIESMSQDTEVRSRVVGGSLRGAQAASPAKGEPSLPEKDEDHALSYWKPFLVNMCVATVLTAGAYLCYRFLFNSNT
The experiment in a line: Competitive inhibition of GST-tagged PTP1B (unknown origin) by plate reader analysis using DiFMUP as substrate.

Data set [6] addresses T2, Dual specificity protein phosphatase 22 (Homo sapiens). The experiment in a line: Inhibition of GST-tagged MKPX (unknown origin) at 10 uM by plate reader analysis using DiFMUP as substrate.
In data set [7] the target is T4, Receptor-type tyrosine-protein phosphatase S (Homo sapiens, UniProt Q13332). The experiment in a line: Inhibition of GST-tagged PTP-sigma (unknown origin) by plate reader analysis using DiFMUP as substrate.
T4 sequence (Q13332 whole entry): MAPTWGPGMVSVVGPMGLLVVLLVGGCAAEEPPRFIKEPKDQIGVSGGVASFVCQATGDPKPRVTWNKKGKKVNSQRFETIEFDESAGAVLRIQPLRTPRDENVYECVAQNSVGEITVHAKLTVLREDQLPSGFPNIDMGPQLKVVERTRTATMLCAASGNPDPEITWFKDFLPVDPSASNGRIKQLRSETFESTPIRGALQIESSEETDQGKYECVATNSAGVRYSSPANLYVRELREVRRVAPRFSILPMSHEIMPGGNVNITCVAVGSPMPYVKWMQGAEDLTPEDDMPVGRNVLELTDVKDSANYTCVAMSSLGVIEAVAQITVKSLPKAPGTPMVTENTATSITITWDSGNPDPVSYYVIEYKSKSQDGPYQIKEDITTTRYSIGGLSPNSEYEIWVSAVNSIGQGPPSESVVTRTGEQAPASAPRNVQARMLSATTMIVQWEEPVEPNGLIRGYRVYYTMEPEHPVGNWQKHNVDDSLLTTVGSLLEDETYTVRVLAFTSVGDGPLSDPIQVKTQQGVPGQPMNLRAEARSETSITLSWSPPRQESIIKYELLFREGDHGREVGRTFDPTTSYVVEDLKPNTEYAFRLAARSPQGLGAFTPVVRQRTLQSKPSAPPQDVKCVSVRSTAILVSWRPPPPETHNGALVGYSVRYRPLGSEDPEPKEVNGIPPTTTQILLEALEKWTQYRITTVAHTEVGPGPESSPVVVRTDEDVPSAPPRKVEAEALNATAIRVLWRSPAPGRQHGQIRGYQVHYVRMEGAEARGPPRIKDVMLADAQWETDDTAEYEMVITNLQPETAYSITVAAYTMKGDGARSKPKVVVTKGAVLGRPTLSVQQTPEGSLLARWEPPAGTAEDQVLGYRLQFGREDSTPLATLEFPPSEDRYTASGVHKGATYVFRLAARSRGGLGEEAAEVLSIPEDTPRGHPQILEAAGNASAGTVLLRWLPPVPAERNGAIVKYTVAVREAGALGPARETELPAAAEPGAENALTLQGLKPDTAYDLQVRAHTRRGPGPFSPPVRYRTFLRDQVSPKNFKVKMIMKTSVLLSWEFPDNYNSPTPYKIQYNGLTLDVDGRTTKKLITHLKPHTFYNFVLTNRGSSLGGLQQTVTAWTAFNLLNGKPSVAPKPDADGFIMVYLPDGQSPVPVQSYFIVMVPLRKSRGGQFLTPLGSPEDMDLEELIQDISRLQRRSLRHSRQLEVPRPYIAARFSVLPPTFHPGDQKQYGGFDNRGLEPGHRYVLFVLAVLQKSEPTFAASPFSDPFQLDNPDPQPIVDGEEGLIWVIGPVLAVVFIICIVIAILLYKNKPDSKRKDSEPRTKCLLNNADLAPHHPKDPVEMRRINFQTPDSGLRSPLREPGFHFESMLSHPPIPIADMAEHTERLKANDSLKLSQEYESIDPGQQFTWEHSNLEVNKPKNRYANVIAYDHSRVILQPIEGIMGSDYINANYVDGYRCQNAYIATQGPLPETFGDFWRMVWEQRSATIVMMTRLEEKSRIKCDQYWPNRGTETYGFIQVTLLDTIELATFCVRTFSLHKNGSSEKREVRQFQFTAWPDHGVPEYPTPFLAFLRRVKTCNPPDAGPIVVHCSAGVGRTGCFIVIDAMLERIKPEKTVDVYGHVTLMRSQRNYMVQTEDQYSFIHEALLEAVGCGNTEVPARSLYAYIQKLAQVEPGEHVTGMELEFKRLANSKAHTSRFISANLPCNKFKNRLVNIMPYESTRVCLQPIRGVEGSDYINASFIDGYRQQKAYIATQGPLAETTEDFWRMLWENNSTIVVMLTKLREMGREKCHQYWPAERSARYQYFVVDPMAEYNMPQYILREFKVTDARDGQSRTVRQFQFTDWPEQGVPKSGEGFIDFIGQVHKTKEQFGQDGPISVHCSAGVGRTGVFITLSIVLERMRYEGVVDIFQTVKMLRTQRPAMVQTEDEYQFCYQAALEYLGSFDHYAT
The species entered for data set [8] is Homo sapiens. The experiment in a line: Selectivity ratio, ratio of IC50 for PTP sigma (unknown origin) to IC50 for PTP1B (unknown origin).
Data set [9] deals with T5, Tyrosine-protein phosphatase non-receptor type 2 (Homo sapiens) (UniProt P17706).
T5 sequence (whole entry): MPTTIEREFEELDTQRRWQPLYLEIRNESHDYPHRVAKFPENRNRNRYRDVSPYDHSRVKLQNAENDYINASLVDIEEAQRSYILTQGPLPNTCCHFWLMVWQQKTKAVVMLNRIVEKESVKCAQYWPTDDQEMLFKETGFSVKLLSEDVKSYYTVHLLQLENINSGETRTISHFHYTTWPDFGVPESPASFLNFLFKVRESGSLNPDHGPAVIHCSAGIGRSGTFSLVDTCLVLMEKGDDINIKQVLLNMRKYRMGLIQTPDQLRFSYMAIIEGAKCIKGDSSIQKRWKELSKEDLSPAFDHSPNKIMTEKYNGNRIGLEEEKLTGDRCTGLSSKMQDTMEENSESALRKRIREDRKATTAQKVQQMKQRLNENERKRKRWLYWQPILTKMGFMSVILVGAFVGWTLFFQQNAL
The experiment in a line: Inhibition of GST-tagged TCPTP (unknown origin) at 10 uM by plate reader analysis using DiFMUP as substrate.

Data set [10] is filed under the species Homo sapiens. The experiment in a line: Inhibition of GST-tagged PRL2 A/S mutant (unknown origin) at 10 uM by plate reader analysis using DiFMUP as substrate.
Data set [11] deals with T3, Tyrosine-protein phosphatase non-receptor type 1. The experiment in a line: Inhibition of GST-tagged PTP1B (unknown origin) by plate reader analysis using DiFMUP as substrate.
The target of data set [12] is T6, Receptor-type tyrosine-protein phosphatase C (Homo sapiens) (UniProt P08575).
T6 sequence (whole entry): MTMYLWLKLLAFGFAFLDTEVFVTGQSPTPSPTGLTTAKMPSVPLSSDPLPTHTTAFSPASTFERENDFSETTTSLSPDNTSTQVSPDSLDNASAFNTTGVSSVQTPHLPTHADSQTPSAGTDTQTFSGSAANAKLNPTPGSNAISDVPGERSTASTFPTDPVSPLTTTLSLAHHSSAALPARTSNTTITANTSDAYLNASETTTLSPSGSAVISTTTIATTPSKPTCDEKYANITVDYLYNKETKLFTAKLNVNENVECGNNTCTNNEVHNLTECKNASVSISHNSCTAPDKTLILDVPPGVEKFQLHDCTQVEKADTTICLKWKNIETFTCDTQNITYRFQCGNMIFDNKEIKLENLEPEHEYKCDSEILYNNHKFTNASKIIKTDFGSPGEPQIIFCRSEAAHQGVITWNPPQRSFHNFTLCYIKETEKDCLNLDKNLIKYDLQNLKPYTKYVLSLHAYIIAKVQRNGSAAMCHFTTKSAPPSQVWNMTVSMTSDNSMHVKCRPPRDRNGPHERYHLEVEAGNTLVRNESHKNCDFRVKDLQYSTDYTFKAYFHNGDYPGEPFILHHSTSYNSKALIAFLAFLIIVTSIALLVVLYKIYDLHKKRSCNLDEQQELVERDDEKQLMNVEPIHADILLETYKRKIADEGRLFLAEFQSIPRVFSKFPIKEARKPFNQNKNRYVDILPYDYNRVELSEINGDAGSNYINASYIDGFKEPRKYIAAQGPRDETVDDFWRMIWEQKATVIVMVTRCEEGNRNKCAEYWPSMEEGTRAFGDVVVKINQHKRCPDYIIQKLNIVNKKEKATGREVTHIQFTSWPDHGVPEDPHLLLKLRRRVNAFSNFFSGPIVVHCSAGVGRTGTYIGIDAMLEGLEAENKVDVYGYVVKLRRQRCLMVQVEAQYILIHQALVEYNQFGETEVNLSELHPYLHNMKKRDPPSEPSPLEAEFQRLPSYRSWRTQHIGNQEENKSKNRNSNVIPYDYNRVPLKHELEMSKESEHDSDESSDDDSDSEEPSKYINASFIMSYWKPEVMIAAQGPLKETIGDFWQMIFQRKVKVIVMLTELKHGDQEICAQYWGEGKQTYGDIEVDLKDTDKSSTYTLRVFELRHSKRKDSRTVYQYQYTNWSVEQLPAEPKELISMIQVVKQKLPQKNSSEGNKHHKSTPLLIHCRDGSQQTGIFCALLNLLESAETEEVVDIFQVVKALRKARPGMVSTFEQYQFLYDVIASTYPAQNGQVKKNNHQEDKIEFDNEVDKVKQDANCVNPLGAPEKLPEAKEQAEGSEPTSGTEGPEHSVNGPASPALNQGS
The experiment in a line: Inhibition of GST-tagged CD45 D1D2 domain (unknown origin) at 10 uM by plate reader analysis using DiFMUP as substrate.

Data set [13] relates to CHO. The experiment in a line: Inhibition of PTP1B in CHO cells assessed as increase in phosphorylation of transfected human insulin receptor by western blot analysis. The format is cell-based. The note with it: Cricetulus griseus.
Data set [14] has as its target T4, Receptor-type tyrosine-protein phosphatase S. The experiment in a line: Inhibition of GST-tagged PTP-sigma (unknown origin) at 10 uM by plate reader analysis using DiFMUP as substrate.
The target in data set [15] is T7, Tyrosine-protein phosphatase non-receptor type 1 (Homo sapiens) (UniProt P18031).
T7 sequence (whole entry): T3 sequence (P18031 whole entry)
The experiment in a line: Inhibition of GST-tagged PTP1B (unknown origin) at 10 uM by plate reader analysis using DiFMUP as substrate.

The test system of data set [16] is CHO. The experiment in a line: Cytotoxicity against CHO cells expressing human insulin receptor at 0.78 to 50 uM after 72 hrs by cell-titer blue assay. The format is cell-based, Cricetulus griseus. The conditions noted are these: chinese hamster.
For data set [17], the target named is Receptor-type tyrosine-protein phosphatase F (Homo sapiens) (UniProt P10586). The experiment in a line: Inhibition of GST-tagged LAR (unknown origin) at 10 uM by plate reader analysis using DiFMUP as substrate.
The subject of data set [18] is CHO. The experiment in a line: Inhibition of PTP1B in CHO cells assessed as increase in phosphorylation of transfected human insulin receptor at 50 uM by western blot analysis. The format is cell-based. The conditions noted are these: Cricetulus griseus. On the technique in general: Immunoblotting shows a protein as a band on a membrane.
The species entered for data set [19] is Homo sapiens. The experiment in a line: Selectivity ratio, ratio of IC50 for PTP1B (unknown origin) to IC50 for PTP sigma (unknown origin).

As to `CN(CC(=O)N(Cc1ccc(C2CCCCC2)cc1)c1ccc(C(=O)O)c(O)c1)S(=O)(=O)c1cccc2cccnc12`, the inhibition result in data set [1], in data set [2], in data set [3] and in data set [4] was “inactive” in each case. Moreover, affinity in [5] was put at a Ki of 5.66 µM.
In the case of `O=C(CCCn1cc(CN(CC(=O)N(Cc2ccc(C3CCCCC3)cc2)c2ccc(C(=O)O)c(O)c2)S(=O)(=O)c2cccc3cccnc23)nn1)Nc1ccc(C(=O)O)c(O)c1`, the inhibition entry in data set [6], in data set [10], in [12] and in data set [17] was “inactive” throughout. The half-maximal inhibitory concentration (IC50) (usually the concentration that inhibits the measured activity by half) turned out to be 7.9 µM in data set [7] and 1700 nM in [11]. Besides, the Ratio IC50 in [8] worked out at 4. The inhibition in data set [9], in data set [14] and in data set [15] was greater than 90% throughout. The Activity entry in data set [13] is “Dose-dependent effect”; in [16], “Non-toxic”.
Turning to `O=C(CCn1cc(CN(CC(=O)N(Cc2ccc(C3CCCCC3)cc2)c2ccc(C(=O)O)c(O)c2)S(=O)(=O)c2cccc3cccnc23)nn1)Nc1ccc(C(=O)O)c(O)c1`, the inhibition entry in data set [6], in data set [10], in data set [12] and in [17] was “inactive” in each case. Also, the half-inhibitory concentration (IC50) turned out to be 11.8 µM in data set [7] and 6100 nM in [11]. The inhibition in data set [9], in data set [14] and in [15] was greater than 90% in each case.
`O=C(CCCCCn1cc(CN(CC(=O)N(Cc2ccc(C3CCCCC3)cc2)c2ccc(C(=O)O)c(O)c2)S(=O)(=O)c2cccc3cccnc23)nn1)Nc1ccc(C(=O)O)c(O)c1`: the inhibition entry in [6], in data set [10], in data set [12] and in [17] was “inactive” in each case. Moreover, the IC50 in [7] is 0.9 µM; in data set [11], 2400 nM. In addition, the inhibition in [9], in data set [14] and in data set [15] was greater than 90% throughout. Further, the Activity entry in [13] is “Dose-dependent effect”; in data set [16], “Non-toxic”.
For VANADATE, the result in data set [18] was Active.
As to `O=C(Cn1cc(CN(CC(=O)N(Cc2ccc(C3CCCCC3)cc2)c2ccc(C(=O)O)c(O)c2)S(=O)(=O)c2cccc3cccnc23)nn1)Nc1ccc(C(=O)O)c(O)c1`, the inhibition result in data set [6], in data set [10], in [12] and in data set [17] was “inactive” throughout. Further, the IC50 in data set [7] stood at 15.6 µM; in data set [11] it was 3600 nM. Besides, the inhibition in [9], in data set [14] and in [15] was greater than 90% throughout. For the same compound, the results for the Activity entry in [13] and in data set [16] were “Dose-dependent effect” and “Non-toxic”, respectively. Further, the affinity in data set [5], expressed as Ki, was 1.83 µM.
In the case of `O=C(CCCCn1cc(CN(CC(=O)N(Cc2ccc(C3CCCCC3)cc2)c2ccc(C(=O)O)c(O)c2)S(=O)(=O)c2cccc3cccnc23)nn1)Nc1ccc(C(=O)O)c(O)c1`, the inhibition result in data set [6], in [10], in [12] and in [17] was “inactive” throughout. The IC50 came to 0.6 µM in [7] and 2300 nM in [11]. Besides, the inhibition in data set [9], in data set [14] and in data set [15] was greater than 90% in each case. The Ratio IC50 in [19] stood at 4.
